Test results reported in patent publication US20140065212A1, “COATED PHARMACEUTICAL COMPOSITION CONTAINING REGORAFENIB” (Bayer Healthcare LLC, priority 2012, published 2014).

Assay: thermodynamic solubility of regorafenib monohydrate in different solvents
Assay type: physicochemical
Conditions: thermodynamic from solid
Source text: Furthermore salts of the compound of formula (I) such as its hydrochloride, mesylate and phenylsulfonate are mentioned in WO 2005/009961. The monohydrate of the compound of formula (I) is mentioned in WO 2008/043446. An improved process for the manufacturing of regorafenib in high purity is described in WO 2011/128261. Due to the limited solubility of regorafenib monohydrate (see table 1) an applicable pharmaceutical composition containing regorafenib is in form of a solid dispersion as described in WO 2006/026500.

- solubility (aqueous with cosolvent or surfactant or cyclodextrin, solvent: HPβ-Cyclodextrin/water (10:90)): < 0.1 mg/mL
- solubility (aqueous with cosolvent or surfactant or cyclodextrin, solvent: PEG 400/water (30:70)): 0.27 mg/mL
- solubility (light liquid paraffin, oil or lipid, solvent: Ligth liquid paraffin): < 0.1 mg/mL
- solubility (oil or lipid, solvent: Oleoylpolyethylenglycol glycerides): 3.6 mg/mL
- solubility (organic solvent or mixture, solvent: Ethanol): 6.4 mg/mL
- solubility (organic solvent or mixture, solvent: Polyethylenglycol (PEG) 400): 67.3 mg/mL
- solubility (solvent: Water): < 0.1 mg/mL
Compound: CNC(=O)c1cc(Oc2ccc(NC(=O)Nc3ccc(Cl)c(C(F)(F)F)c3)c(F)c2)ccn1 [regorafenib monohydrate]
